ED50, IC50 and ED₅₀ data for three compounds are collected here from patent publication EP0367895A1, “Pyrimidinyl-substituted hydroxyacids, lactones and esters and pharmaceutical compositions containing them” (SANDOZ AG, priority 1988, dated 1990).

The test system of test [1] is 3β-hydroxysterol synthesis. Kind of test: Test B: in vivo cholesterol biosynthesis inhibition test (as described in EP 114 027). Particulars: dose calculated to produce a 50% inhibition of 3β-hydroxysterol synthesis, test doses between 0.01 mg/kg and 10 mg/kg; for ED50: read-out: ED₅₀. The method, then: Test B. In vivo cholesterol biosynthesis inhibition test: as described in EP 114 027:
ED₅₀ is the dose of the test substance calculated to produce a 50% inhibition of 3β-hydroxysterol synthesis. The studies are run to test doses of between 0.01 mg/kg and 10 mg/kg.

Test [2] addresses T1, 3-hydroxy-3-methylglutaryl coenzyme A (HMG-CoA) reductase (Rattus norvegicus, UniProt P51639).
T1 construct: In vitro microsomal assay of; from tissue; host or cells: Microsomes; it is liver according to own knowledge of EP 114 027
T1 sequence (P51639 1-887): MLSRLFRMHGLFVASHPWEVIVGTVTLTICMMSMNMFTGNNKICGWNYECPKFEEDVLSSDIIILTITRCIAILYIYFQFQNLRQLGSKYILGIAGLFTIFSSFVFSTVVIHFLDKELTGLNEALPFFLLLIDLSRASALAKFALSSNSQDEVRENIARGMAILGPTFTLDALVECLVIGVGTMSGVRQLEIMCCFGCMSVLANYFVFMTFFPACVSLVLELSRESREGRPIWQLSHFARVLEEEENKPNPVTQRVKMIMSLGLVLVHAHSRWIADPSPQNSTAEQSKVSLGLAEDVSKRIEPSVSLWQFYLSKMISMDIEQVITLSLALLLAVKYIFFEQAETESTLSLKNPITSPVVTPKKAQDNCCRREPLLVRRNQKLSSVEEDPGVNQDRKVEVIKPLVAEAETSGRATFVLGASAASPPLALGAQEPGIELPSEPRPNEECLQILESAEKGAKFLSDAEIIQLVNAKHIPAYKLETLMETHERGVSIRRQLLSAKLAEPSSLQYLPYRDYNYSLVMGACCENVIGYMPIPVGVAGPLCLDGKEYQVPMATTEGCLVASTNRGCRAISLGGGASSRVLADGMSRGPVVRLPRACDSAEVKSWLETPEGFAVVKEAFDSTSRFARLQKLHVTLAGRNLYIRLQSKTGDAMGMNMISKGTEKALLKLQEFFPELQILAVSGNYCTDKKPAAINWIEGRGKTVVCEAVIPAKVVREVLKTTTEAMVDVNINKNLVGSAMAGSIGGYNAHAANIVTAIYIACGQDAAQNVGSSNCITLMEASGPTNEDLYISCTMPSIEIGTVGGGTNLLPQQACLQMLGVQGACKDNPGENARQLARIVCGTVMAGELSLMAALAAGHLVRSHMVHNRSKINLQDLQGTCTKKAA
Put plainly: Test A: in vitro microsomal assay of HMG-CoA reductase inhibition (as described in EP 114 027). Type of test: biochemical. Particulars: concentration calculated to produce a 50% inhibition of HMG-CoA reductase activity; tests run between 0.05 µM and 1000 µM; read-out: IC₅₀. The method, then:
Test A. In vitro microsomal assay of 3-hydroxy-3-methylglutaryl coenzyme A (HMG-CoA) reductase inhibition: as described in EP 114 027:
IC₅₀ is the concentration of the test substance in the assay system calculated to produce a 50% inhibition of HMG-CoA reductase activity. The tests are run at concentrations of test substance between 0.05 µM and 1000 µM.

pIC50: −log10 of the molar value.

Take `CC(C)c1nc(N(C)C)nc(-c2ccc(F)cc2)c1/C=C/[C@@H](O)C[C@@H](O)CC(=O)[O-].[Na+]` [Example 1b), sodium (3R,5S)-[E]-7-[4-(4-fluoro-phenyl)-6-(1-methylethyl)-2-(dimethylamino)pyrimidin-5-yl]-3,5-dihydroxy-6-heptenoate]: the ED50 in test [1] is 0.028 mg/kg. Also, in test [2], the pIC50 was 7.59. For `CC(C)c1nc(N(C)C)nc(-c2ccncc2)c1/C=C/[C@@H](O)C[C@@H](O)CC(=O)O` [Example 11d] the same measures were 0.04 mg/kg and 7.41. As to Mevinolin [reference compound], in test [1], the ED₅₀ is on record as 0.41 mg/kg.
